These results are taken from patent US20240016765A1, “Use of an alkaloid compound in the preparation of products for the prevention and/or treatment of cardiac damage” (NORTHWEST INSTITUTE OF PLATEAU BIOLOGY, CHINESE ACADEMY OF …, priority 2021, published 2024).

Common to all, as to type: cell-based
One data set relates to p-JNK. The data set is described as follows: Western blot of p-JNK/JNK in DOX-treated H9c2 cardiomyocytes. As to conditions: FIG. 4; for p-JNK expression level compared with DOX model group: 1 h incubation, then DOX 24 h. The procedure:
(§1) (2) Incubate H9c2 cells with alkaloid compound I for 1 hour, then add […] DOX and incubate for 24 hours; extract the proteins, proceed with hydrolysis and collect the resulting solution, centrifuge at 12000 rpm for 15 minutes, collect the supernatant and discard the precipitate, store under −80° C. until analysis. Perform SDS-PAGE electrophoresis (Stepl voltage set at 80V for 30 minutes, followed by Step2 voltage set at 120V for 180 minutes), using 5% concentrated gel. Carry out membrane transfer using a PVDF membrane, with a current of 80 mA for 30 minutes. Then, conduct the closure and hybridization by using 5% skim milk powder for 1 hour of closure, followed by overnight incubation with primary antibody, and 1-2 hours of incubation with secondary antibody at room temperature with gentle shaking. Finally, visualize the proteins by using ECL reagent and observe the expression of Caspase-3 and p-JNK/JNK proteins using a gel imaging system.

The next data set relates to Cleaved-Caspase-3. The data set is described as follows: Western blot of Cleaved-Caspase-3 in DOX-treated H9c2 cardiomyocytes. The settings on record: FIG. 3. The procedure:
as §1
Background: In western blotting, separated proteins are transferred to a membrane and probed.

Data set [1] deals with H9c2 cardiomyocytes. Kind of data set: Effect on DOX-induced H9c2 cardiomyocyte toxicity (MTT colorimetric assay). As to conditions: 1 h pre-incubation, then 2.5 μM DOX 24 h, FIG. 2. As for the experimental part: (1) H9c2 cells are pre-incubated with alkaloid compound I for lh, then add 2.5 μM doxorubicin (DOX), incubate for 24 h. MTT colorimetric assay is used to determine the apoptotic activity of alkaloid compound I on DOX-induced cardiomyocytes and determine the optimal range of the dose concentration.
(In general: Tetrazolium dyes change colour on reduction, which living cells bring about.)

In data set [2] the test system is H9c2 cardiomyocytes. The data set is described as follows: Toxicity of alkaloid compound I on H9c2 cardiomyocytes (MTT colorimetric method). The settings on record: 24 h incubation, FIG. 1. As for the experimental part:
H9c2 cells are incubated with different concentrations (0.1 μM, 1 μM, 5 μM, 10 μM, 20 μM, 40 μM, 80 μM, 160 μM) of alkaloid compounds I for 24 h, and then the toxic effects of the alkaloid compounds on cardiomyocytes are evaluated by MTT colorimetric method.

For `COc1cccc2c1C(=O)c1c(O)c3c(c(O)c1C2=O)C[C@@](O)(C(=O)CO)C[C@@H]3O[C@H]1C[C@H](N)[C@H](O)[C@H](C)O1` [DOX, doxorubicin, reference compound], the “p-JNK expression level compared with Con group” value with p-JNK (DOX model group, DOX 24 h) is on record as “significantly higher”. Further, the “Cleaved-Caspase-3 expression level compared with Con group” value in the data set with Cleaved-Caspase-3 (DOX model group, DOX 24 h) was “significantly higher”.

With `O=C(/C=C/c1ccc(O)cc1)NCCCCO` [compound I, 4-[(E)-p-coumaroylamino]butan-1-ol], in the data set with H9c2 cardiomyocytes [1] (5-80 μM), the “difference from DOX model group in DOX-induced cardiomyocyte toxicity” value was “a significant difference or a highly significant difference”. Further, the “inhibition of DOX-induced cardiomyocyte toxicity compared with DOX model group” value with H9c2 cardiomyocytes [1] (different concentration ranges) is “all exhibit inhibition of DOX-induced cardiomyocyte toxicity”. In addition, the “toxic effect on H9c2 cell viability compared with Con group” value was “significantly different compared with the Con group” in the data set on H9c2 cardiomyocytes [2] (80 μM) and “not statistically different from the Con group” with H9c2 cardiomyocytes [2] (0.1-40 μM). Besides, the “p-JNK expression level compared with DOX model group” value in the data set with p-JNK (high-dose 40 μM) is recorded as “a highly significant difference”; with p-JNK (low-dose 10 μM), “no statistically significant difference”; with p-JNK (moderate-dose 20 μM), “a highly significant difference”. Also, the “Cleaved-Caspase-3 expression level compared with DOX model group” value in the data set with Cleaved-Caspase-3 (10 μM, 20 μM and 40 μM, 1 h incubation, then DOX 24 h) is reported as “able to inhibit the elevation of Cleaved-Caspase-3 level induced by DOX to varying degrees”.
